Article PMC11739978, “Next-Generation Carbazole-Linked 1,2,4-Triazole-Thione Derivatives: Strategic Design, Synthesis, Molecular Docking, and Evaluation of Antidiabetic Potential” (ACS Omega, 2024)
“And” between values parts separate entries of the source, which are not always exact repeats. Equal entries are not always repeated.

Tests used:
[1] = MTS cytotoxicity assay on LX-2 normal hepatic cells; settings: human, LX-2 hepatic stellate cells
[2] = test system: STZ-induced diabetic mice; experiment: In vivo hypoglycemic effect in mice with STZ-induced diabetes; settings: group III STZ-diabetic mice, fasting
Procedure: The Carbazole-triazole derivatives were tested in a laboratory setting to determine their ability to inhibit the enzyme α-amylase and α-glucosidase. […] Therefore, C5f was selected for further investigation of its ability to lower blood sugar levels in an in vivo study. This investigation sought to reveal the effect of C5f on blood glucose levels in mice with diabetes caused by Streptozotocin (STZ). This compound has a significant hypoglycemic effect in STZ-diabetic mice, similar to the effect reported in the control group (mice that were not treated), as shown in Figure 3. The mice were divided into three groups: group I: negative control mice without any treatment; Group II: positive control mice with STZ treatment only; and Group III: mice treated with STZ and then with our compound C5f.
The investigations conducted on mice adhered strictly to the protocols established by the Association for Assessment and Accreditation of Laboratory Animal Care International. The Institutional Review Board of the Animal House and Use Committee at An-Najah National University granted full ethical approval for the study (approval number: Med. September. 2022/2A). […]
The experiment entailed inducing diabetes intraperitoneally by administering streptozotocin (STZ) (i.p.). […] To determine the development of diabetes, the mice’s fasting blood glucose levels were evaluated 4 days following the injection of STZ. […]

LX-2 cells = experiment: MTS cytotoxicity assay on LX-2 normal hepatic cells; settings: LX-2, 100 μM

SMILES	viability at 24 h, 100 µM [1] [%]	blood glucose level after five doses of C5f ([2]; 10 mg/kg i.p. daily for 5 days, 10 mg/kg)	blood glucose level before C5f treatment ([2]; baseline after STZ induction)	lower cytotoxic activity compared to the positive control 5-FU (LX-2 cells) [fold]
O=c1[nH]cc(F)c(=O)[nH]1 [5-Fu, 5-Fluorouracil, reference compound]	13.4	–	–	–
COc1ccc(-n2c(Cn3c4ccccc4c4ccccc43)n[nH]c2=S)cc1 [C5f, 5-((9H-Carbazol-9-yl)methyl)-4-(4-methoxyphenyl)-2,4-dihydro-3H-1,2,4-triazole-3-thione]	63.6	216.15 mg/dL and 216.15 ± 3.45 mg/dL	290.54 mg/dL and 290.54 ± 2.15 mg/dL	–
S=c1[nH]nc(Cn2c3ccccc3c3ccccc32)n1-c1ccc(Br)cc1 [C5g, 5-((9H-Carbazol-9-yl)methyl)-4-(4-bromophenyl)-2,4-dihydro-3H-1,2,4-triazole-3-thione]	65.3 to 85.3	–	–	–
S=c1[nH]nc(Cn2c3ccccc3c3ccccc32)n1-c1ccc(Cl)cc1 [C5h, 5-((9H-Carbazol-9-yl)methyl)-4-(4-chlorophenyl)-2,4-dihydro-3H-1,2,4-triazole-3-thione]	65.3 to 85.3	–	–	–
S=c1[nH]nc(Cn2c3ccccc3c3ccccc32)n1C1CCCCC1 [C5m, 5-((9H-Carbazol-9-yl)methyl)-4-cyclohexyl-2,4-dihydro-3H-1,2,4-triazole-3-thione]	65.3 to 85.3	–	–	–
O=C(c1ccccc1)n1c(Cn2c3ccccc3c3ccccc32)n[nH]c1=S [C5o, (3-((9H-Carbazol-9-yl)methyl)-5-thioxo-1,5-dihydro-4H-1,2,4-triazol-4-yl)(phenyl)methanone]	36.5	–	–	3
S=c1[nH]nc(Cn2c3ccccc3c3ccccc32)n1C1CC2CCC1C2 (stereo not drawn) [C5r, 5-((9H-Carbazol-9-yl)methyl)-4-(bicyclo[2.2.1]heptan-2-yl)-2,4-dihydro-3H-1,2,4-triazole-3-thione]	64.5	–	–	–
S=c1[nH]nc(Cn2c3ccccc3c3ccccc32)n1CCc1ccccc1 [C5s, 5-((9H-Carbazol-9-yl)methyl)-4-phenethyl-2,4-dihydro-3H-1,2,4-triazole-3-thione]	37.8	–	–	3
